pEC50: −log10 of the molar value. ≈ marks a conversion by molar mass, not a printed value.
Experiments:
[1] = Oral bioavailability in C57BL/6 mouse at 30 mg/kg; type: ADME, organism-based; settings: in vivo
[2] = Cmax in C57BL/6 mouse at 10 mg/kg, po; type: ADME, organism-based; parameters: dose 10 mg/kg, route po; settings: in vivo
[3] = AUC (0 to infinity) in C57BL/6 mouse at 10 mg/kg, po; type: ADME, organism-based; parameters: time infinity, dose 10 mg/kg, route po; settings: in vivo
[4] = Unbound fraction in human plasma; type: ADME, cell-free
[5] = Clearance in C57BL/6 mouse at 1 mg/kg, iv; type: ADME, organism-based; settings: in vivo
[6] = Volume of distribution at steady state in C57BL/6 mouse at 1 mg/kg, iv; type: ADME, organism-based; settings: in vivo
[7] = Half-life in C57BL/6 mouse at 1 mg/kg, iv; type: ADME, organism-based; settings: in vivo
[8] = Cmax in C57BL/6 mouse at 30 mg/kg, po; type: ADME, organism-based; parameters: dose 30 mg/kg, route po; settings: in vivo
[9] = Solubility of the compound in JP1 solution at pH 1.2; type: physicochemical
[10] = Half-life in C57BL/6 mouse at 10 mg/kg, po; type: ADME, organism-based; settings: in vivo
[11] = Apparent permeability across basolateral to apical side in human Caco-2 cells; type: ADME, cell-based
[12] = target: Transient receptor potential cation channel subfamily M member 4 (Homo sapiens, UniProt Q8TD43); assay: Agonist activity at human TRPM4 expressed in CHO-K1 cells assessed as increase in relative fluorescence unit by measuring membrane potential by FLIPR assay; type: cell-based
[13] = Area under […] in C57BL/6 mouse at 30 mg/kg administered twice a day; type: ADME, organism-based; settings: in vivo
[14] = Half-life in C57BL/6 mouse at 300 mg/kg, po; type: ADME, organism-based; settings: in vivo
[15] = AUC (0 to infinity) in C57BL/6 mouse at 300 mg/kg, po; type: ADME, organism-based; parameters: time infinity, dose 300 mg/kg, route po; settings: in vivo
[16] = Oral bioavailability in C57BL/6 mouse at 300 mg/kg; type: ADME, organism-based; settings: in vivo
[17] = AUC (0 to infinity) in C57BL/6 mouse at 100 mg/kg, po; type: ADME, organism-based; parameters: time infinity, dose 100 mg/kg, route po; settings: in vivo
[18] = target: T1, Transient receptor potential cation channel subfamily M member 5 (Homo sapiens, UniProt Q9NZQ8); assay: Agonist activity at human TRPM5 expressed in CHO-K1 cells assessed as increase in relative fluorescence unit measured for 2 mins by FLIPR based membrane potential assay; type: cell-based
T1 sequence (Q9NZQ8 whole entry): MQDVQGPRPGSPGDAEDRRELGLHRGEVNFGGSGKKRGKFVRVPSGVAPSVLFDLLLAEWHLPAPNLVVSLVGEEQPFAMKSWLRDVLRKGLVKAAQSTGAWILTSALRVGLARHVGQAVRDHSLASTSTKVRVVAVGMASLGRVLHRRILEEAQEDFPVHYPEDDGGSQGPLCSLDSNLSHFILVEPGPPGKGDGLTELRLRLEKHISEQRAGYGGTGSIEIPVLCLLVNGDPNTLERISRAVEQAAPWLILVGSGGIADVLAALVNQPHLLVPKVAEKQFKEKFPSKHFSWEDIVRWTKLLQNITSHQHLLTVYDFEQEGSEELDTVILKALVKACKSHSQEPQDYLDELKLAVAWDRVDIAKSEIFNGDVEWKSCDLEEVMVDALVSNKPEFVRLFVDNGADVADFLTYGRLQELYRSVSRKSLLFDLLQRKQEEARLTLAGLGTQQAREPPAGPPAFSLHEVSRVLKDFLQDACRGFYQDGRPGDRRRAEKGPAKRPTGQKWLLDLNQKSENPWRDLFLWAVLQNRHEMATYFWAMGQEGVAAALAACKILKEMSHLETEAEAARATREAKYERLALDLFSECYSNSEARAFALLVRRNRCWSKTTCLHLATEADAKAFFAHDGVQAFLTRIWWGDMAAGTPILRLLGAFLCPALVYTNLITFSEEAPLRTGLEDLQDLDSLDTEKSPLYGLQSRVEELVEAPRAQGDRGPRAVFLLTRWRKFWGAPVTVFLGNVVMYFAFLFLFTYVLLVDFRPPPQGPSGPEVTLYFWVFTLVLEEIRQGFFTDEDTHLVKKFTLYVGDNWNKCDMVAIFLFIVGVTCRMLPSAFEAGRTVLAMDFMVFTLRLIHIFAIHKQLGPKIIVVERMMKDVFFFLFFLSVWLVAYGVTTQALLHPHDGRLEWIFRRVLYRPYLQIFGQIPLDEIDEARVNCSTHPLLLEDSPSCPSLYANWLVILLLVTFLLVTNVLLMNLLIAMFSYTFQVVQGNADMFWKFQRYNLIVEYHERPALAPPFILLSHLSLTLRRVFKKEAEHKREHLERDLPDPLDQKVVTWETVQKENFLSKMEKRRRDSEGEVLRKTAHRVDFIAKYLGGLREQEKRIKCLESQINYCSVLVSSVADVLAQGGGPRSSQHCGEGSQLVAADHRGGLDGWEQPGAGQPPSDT

[19] = Unbound fraction in mouse plasma; type: ADME, cell-free
[20] = Oral bioavailability in C57BL/6 mouse at 100 mg/kg; type: ADME, organism-based; settings: in vivo
[21] = Apparent permeability across apical to basolateral side in human Caco-2 cells; type: ADME, cell-based
[22] = Oral bioavailability in C57BL/6 mouse at 10 mg/kg; type: ADME, organism-based; settings: in vivo
[23] = Area under […] in C57BL/6 mouse at 300 mg/kg administered twice a day; type: ADME, organism-based; settings: in vivo
[24] = Half-life in C57BL/6 mouse at 100 mg/kg, po; type: ADME, organism-based; settings: in vivo
[25] = Area under […] in C57BL/6 mouse at 100 mg/kg administered twice a day; type: ADME, organism-based; settings: in vivo
[26] = Half-life in C57BL/6 mouse at 30 mg/kg, po; type: ADME, organism-based; settings: in vivo
[27] = Cmax in C57BL/6 mouse at 300 mg/kg, po; type: ADME, organism-based; parameters: dose 300 mg/kg, route po; settings: in vivo
[28] = AUC (0 to infinity) in C57BL/6 mouse at 30 mg/kg, po; type: ADME, organism-based; parameters: time infinity, dose 30 mg/kg, route po; settings: in vivo
[29] = Cmax in C57BL/6 mouse at 100 mg/kg, po; type: ADME, organism-based; parameters: dose 100 mg/kg, route po; settings: in vivo
[30] = Metabolic stability in human liver microsomes assessed as half life; type: ADME, Microsome
[31] = Solubility of the compound in JP2 solution at pH 6.8; type: physicochemical
[32] = AUC (0 to infinity) in C57BL/6 mouse at 1 mg/kg, iv; type: ADME, organism-based; parameters: time infinity, dose 1 mg/kg, route iv; settings: in vivo
[33] = system: MDR1 (multidrug resistance mutation-1 as written); assay: Apparent permeability across basolateral to apical side in LLC-PK1 cells overexpressing multidrug resistance mutation-1; type: ADME, cell-based, Sus scrofa; settings: pig
[34] = target: Transient receptor potential cation channel subfamily V member 1 (Homo sapiens, UniProt Q8NER1); assay: Agonist activity at human TRPV1
[35] = target: T2, Transient receptor potential cation channel subfamily M member 5 (Mus musculus, UniProt Q9JJH7); assay: Agonist activity at mouse TRPM5 expressed in CHO-K1 cells; type: cell-based
T2 sequence (Q9JJH7 whole entry): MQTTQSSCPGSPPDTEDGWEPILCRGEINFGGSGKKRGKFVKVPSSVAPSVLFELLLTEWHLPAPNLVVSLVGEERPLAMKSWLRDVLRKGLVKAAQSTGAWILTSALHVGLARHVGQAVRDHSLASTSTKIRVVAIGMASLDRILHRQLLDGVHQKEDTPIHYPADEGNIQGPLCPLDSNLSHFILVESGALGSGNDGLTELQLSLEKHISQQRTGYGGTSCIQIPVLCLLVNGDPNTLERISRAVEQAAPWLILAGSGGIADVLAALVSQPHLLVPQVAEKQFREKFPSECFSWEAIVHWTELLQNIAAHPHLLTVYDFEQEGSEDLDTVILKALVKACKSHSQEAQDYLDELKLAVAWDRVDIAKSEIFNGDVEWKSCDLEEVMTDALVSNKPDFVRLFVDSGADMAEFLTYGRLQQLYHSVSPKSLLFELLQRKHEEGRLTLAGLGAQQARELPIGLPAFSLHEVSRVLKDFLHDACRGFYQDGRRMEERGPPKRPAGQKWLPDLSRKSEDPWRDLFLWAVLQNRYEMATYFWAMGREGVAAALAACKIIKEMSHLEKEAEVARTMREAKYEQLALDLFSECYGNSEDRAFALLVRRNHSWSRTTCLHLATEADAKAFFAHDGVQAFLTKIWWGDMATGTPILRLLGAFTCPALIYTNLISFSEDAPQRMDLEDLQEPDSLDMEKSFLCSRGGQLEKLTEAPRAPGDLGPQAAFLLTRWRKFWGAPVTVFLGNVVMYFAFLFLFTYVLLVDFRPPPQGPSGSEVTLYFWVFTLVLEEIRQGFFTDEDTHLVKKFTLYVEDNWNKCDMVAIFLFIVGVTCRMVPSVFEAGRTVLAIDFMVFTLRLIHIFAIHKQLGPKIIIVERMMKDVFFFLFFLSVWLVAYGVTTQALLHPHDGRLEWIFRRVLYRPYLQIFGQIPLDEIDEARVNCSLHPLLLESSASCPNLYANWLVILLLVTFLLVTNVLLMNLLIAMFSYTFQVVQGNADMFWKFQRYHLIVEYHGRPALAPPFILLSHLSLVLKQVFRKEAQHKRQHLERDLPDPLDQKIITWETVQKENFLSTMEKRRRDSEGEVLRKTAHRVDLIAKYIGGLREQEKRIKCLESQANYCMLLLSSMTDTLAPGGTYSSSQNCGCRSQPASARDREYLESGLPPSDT

[36] = target: Transient receptor potential cation channel subfamily A member 1 (Homo sapiens, UniProt O75762); assay: Agonist activity at human TRPA1 expressed in HEK cells assessed as increase in intracellular calcium level measured for 5 mins by FLIPR assay; type: cell-based
[37] = target: Transient receptor potential cation channel subfamily V member 4 (Homo sapiens, UniProt Q9HBA0); assay: Agonist activity at human TRPV4
[38] = system: MDR1 (multidrug resistance mutation-1 as written); assay: Apparent permeability across apical to basolateral side in LLC-PK1 cells overexpressing multidrug resistance mutation-1; type: ADME, cell-based, Sus scrofa; settings: pig
[39] = target: Transient receptor potential cation channel subfamily M member 8 (Homo sapiens, UniProt Q7Z2W7); assay: Agonist activity at human TRPM8 expressed in HEK cells assessed as increase in intracellular calcium level measured for 5 mins by FLIPR assay; type: cell-based
[40] = Solubility of the compound in JP2 solution at pH 6.8 measured after 3 hrs by UHPLC analysis; type: physicochemical
[41] = Solubility of the compound in JP1 solution at pH 1.2 measured after 3 hrs by UHPLC analysis; type: physicochemical

Sequence of Transient receptor potential cation channel subfamily M member 4 (Q8TD43 whole entry): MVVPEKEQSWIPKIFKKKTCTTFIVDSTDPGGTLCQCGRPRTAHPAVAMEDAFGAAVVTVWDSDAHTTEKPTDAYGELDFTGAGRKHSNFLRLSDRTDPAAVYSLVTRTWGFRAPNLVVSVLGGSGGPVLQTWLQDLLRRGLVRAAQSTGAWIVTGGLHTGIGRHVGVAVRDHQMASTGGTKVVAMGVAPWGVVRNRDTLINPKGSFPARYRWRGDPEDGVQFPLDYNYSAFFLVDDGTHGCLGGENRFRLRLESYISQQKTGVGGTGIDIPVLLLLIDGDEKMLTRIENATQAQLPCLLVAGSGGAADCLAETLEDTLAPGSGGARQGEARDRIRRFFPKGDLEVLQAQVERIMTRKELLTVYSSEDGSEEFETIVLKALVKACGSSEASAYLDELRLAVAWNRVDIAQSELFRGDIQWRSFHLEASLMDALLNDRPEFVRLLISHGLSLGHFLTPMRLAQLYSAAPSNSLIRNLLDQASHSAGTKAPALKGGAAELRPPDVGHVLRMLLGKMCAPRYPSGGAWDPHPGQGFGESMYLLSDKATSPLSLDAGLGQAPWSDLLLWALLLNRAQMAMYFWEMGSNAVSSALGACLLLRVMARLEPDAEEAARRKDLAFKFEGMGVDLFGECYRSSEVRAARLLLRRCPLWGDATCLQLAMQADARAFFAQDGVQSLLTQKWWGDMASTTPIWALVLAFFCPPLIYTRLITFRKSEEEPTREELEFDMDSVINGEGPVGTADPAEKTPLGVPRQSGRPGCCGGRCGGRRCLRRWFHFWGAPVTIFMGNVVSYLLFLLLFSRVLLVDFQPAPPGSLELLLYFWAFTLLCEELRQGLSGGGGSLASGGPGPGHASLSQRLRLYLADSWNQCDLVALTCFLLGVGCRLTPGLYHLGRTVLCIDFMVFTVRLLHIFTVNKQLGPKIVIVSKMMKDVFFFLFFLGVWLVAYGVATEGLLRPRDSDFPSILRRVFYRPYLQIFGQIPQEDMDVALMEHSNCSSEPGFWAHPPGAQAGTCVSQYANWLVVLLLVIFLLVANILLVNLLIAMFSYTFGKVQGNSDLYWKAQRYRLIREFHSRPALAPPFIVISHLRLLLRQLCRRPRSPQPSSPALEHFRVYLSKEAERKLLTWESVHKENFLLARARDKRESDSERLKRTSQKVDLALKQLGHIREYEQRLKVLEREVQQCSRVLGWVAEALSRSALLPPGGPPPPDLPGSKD
Sequence of Transient receptor potential cation channel subfamily V member 1 (Q8NER1 whole entry): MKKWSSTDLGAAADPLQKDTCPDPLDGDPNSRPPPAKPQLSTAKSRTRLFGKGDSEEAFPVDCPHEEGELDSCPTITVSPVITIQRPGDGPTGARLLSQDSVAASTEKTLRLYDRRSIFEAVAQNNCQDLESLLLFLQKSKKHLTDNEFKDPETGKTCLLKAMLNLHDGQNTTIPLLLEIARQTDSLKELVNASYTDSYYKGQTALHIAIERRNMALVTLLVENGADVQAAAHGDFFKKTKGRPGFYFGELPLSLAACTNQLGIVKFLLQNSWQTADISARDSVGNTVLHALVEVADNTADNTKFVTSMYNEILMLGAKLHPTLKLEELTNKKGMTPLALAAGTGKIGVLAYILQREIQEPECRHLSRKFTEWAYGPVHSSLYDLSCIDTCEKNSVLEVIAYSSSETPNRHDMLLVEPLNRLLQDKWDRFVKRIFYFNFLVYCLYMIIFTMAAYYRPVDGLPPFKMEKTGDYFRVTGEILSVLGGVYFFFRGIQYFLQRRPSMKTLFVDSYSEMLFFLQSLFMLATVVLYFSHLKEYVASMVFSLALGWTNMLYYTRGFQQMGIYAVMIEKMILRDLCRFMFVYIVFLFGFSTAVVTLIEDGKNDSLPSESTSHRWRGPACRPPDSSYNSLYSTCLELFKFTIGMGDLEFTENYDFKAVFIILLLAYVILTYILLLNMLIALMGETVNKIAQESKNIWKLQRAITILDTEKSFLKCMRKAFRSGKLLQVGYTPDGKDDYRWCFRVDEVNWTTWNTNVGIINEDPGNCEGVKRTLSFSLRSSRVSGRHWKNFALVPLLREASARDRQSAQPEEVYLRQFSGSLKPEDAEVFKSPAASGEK
Sequence of Transient receptor potential cation channel subfamily V member 4 (Q9HBA0 whole entry): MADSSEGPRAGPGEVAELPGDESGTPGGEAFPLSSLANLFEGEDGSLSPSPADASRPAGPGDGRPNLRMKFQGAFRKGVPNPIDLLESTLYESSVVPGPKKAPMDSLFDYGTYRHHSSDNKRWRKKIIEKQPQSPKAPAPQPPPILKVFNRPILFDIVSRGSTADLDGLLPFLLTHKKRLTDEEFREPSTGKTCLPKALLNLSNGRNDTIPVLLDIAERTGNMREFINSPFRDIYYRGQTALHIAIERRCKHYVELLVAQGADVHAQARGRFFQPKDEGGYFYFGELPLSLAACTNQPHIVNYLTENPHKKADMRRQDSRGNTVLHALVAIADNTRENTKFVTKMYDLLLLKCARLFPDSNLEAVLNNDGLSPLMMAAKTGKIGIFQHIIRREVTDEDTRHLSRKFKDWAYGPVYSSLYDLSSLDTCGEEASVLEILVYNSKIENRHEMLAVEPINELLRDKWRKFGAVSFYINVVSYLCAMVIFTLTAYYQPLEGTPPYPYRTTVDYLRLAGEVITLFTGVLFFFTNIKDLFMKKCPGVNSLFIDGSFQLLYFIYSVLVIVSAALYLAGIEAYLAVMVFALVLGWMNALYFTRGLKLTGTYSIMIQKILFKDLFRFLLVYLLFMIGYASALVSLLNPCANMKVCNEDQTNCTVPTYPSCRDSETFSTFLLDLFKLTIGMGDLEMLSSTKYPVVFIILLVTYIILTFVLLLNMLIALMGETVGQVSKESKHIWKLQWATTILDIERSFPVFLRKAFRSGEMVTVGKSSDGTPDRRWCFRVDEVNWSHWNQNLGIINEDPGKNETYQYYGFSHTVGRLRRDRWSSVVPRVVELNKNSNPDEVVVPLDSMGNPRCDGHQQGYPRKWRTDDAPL
Sequence of Transient receptor potential cation channel subfamily A member 1 (O75762 whole entry): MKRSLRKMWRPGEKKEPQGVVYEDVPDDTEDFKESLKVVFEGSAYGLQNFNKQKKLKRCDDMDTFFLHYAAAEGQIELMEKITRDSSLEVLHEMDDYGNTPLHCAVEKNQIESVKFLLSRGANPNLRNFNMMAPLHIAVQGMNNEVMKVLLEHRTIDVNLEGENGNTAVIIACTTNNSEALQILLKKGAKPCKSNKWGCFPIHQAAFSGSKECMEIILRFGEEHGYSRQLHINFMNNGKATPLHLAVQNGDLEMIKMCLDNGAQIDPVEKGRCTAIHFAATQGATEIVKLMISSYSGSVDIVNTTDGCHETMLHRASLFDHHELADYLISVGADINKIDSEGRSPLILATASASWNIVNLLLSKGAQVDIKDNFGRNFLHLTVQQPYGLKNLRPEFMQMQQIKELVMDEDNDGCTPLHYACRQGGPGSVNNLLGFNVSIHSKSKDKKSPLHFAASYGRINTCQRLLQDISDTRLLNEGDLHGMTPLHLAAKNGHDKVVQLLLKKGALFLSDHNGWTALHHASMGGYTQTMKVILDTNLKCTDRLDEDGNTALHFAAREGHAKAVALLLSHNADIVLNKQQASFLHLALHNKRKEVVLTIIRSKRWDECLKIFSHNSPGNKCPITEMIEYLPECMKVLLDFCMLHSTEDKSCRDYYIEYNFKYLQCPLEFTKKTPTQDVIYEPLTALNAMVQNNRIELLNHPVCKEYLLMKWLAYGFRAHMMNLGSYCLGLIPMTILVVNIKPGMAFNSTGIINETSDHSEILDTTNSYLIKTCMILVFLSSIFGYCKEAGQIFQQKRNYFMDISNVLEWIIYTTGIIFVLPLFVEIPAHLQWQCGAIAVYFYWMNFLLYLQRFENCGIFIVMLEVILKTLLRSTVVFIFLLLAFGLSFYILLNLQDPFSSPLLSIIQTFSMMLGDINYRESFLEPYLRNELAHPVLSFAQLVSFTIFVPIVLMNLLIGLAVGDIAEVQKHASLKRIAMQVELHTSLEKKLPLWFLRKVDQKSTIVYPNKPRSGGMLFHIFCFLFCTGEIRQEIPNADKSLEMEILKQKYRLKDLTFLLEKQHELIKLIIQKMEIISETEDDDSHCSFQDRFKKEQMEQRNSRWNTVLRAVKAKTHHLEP

Compound: N#Cc1ccc2c(c1)C[C@H](CO)N[C@@H]2c1cc(F)cc(Cl)c1 (racemic)
- F [1]: 74%
- Cmax [2]: 290 ng/mL
- AUC [3]: 848 ng·h/mL
- fraction unbound [4]: 0.121
- clearance [5]: 92.3 mL/min/kg
- Vd ([6]; C57BL/6, mouse, read-out: Vdss): 4.41 L/kg
- half-life ([7]; C57BL/6, mouse): 1.1 h
- Cmax [8]: 700 ng/mL
- solubility [9]: 25300 µg/mL (≈ 79.7 mM)
- half-life ([10]; C57BL/6, mouse): 2.9 h
- Papp B→A [11]: 15.4 ×10⁻⁶ cm/s
- pEC50 [12]: 4.94
- AURC [13]: 6.7 h
- half-life [14]: 5.5 h
- AUC(0-inf) [15]: 49400 ng·h/mL
- bioavailability [16]: 100%
- AUC [17]: 28050 ng·h/mL
- pEC50 [18]: 6.90
- fraction unbound [19]: 0.115
- F [20]: 100%
- Papp A→B [21]: 10.3 ×10⁻⁶ cm/s
- F [22]: 44%
- AURC [23]: 17.3 h
- half-life ([24]; C57BL/6, mouse): 5.1 h
- AURC [25]: 12.3 h
- t1/2 ([26]; mouse, po, 30 mg/kg): 4.4 h
- Cmax [27]: 6020 ng/mL
- AUC [28]: 3676 ng·h/mL
- Cmax [29]: 3667 ng/mL
- half-life ([30]; liver microsomes): 1.53 h
- solubility [31]: 201 µg/mL (≈ 0.635 mM)
- AUC(0-inf) ([32]; C57BL/6, mouse): 181 ng·h/mL

Compound: N#Cc1ccc2c(c1)C[C@H](CO)N[C@@H]2c1cc(F)cc(Cl)c1
- F [1]: 20.3%
- Cmax [2]: 101 ng/mL
- AUC [3]: 395 ng·h/mL
- Papp B→A [33]: 13.7 ×10⁻⁶ cm/s
- Vdss ([6]; mouse, iv, 1 mg/kg): 3.507 L/kg
- pEC50 [34]: < 4.80
- t1/2 ([7]; mouse, iv, 1 mg/kg): 0.8 h
- Cmax [8]: 301 ng/mL
- t1/2 ([10]; mouse, po, 10 mg/kg): 4.3 h
- pEC50 [12]: 4.28
- pEC50 [35]: 6.60
- pEC50 [36]: < 4.80
- pEC50 [37]: < 4.80
- AUC [17]: 8591 ng·h/mL
- pEC50 [18]: 7.10
- F [20]: 49%
- F [22]: 16.6%
- t1/2 ([24]; mouse, po, 100 mg/kg): 6.3 h
- Papp A→B [38]: 26.6 ×10⁻⁶ cm/s
- pEC50 [39]: < 4.80
- half-life ([26]; C57BL/6, mouse): 5.4 h
- solubility at 3 h [40]: 43 µg/mL (≈ 0.136 mM)
- AUC [28]: 1716 ng·h/mL
- Cmax [29]: 1396 ng/mL
- t1/2 ([30]; microsomes): 1.48 h
- solubility at 3 h [41]: 3500 µg/mL (≈ 11 mM)
- AUC ([32]; mouse): 177.1 ng·h/mL

Reference: ChEMBL document CHEMBL5150049, “The discovery of (1R, 3R)-1-(3-chloro-5-fluorophenyl)-3-(hydroxymethyl)-1,2,3,4-tetrahydroisoquinoline-6-carbonitrile, a potent and selective agonist of human transient receptor potential cation channel subfamily m member 5 (TRPM5) and evaluation of as a potential gastrointestinal prokinetic agent” (Bioorg Med Chem, 2022)
